Experimental data taken from publication PMC3362798 (Bioorganic & medicinal chemistry letters, 2012).
Like-named read-outs stand apart in the source and are kept apart here. One block for each compound: values may come before it.

Experiments:
[1] = cited from earlier work
NPY Y2 = NPY Y2 antagonist; cited from earlier work
rats = conditions: intracerebroventricular (icv) administration; cited from earlier work
mice = conditions: intracerebroventricular (icv) administration; cited from earlier work
NPY Y2 receptor = biological target: T1, NPY Y2 receptor (Homo sapiens, UniProt P49146); assay: cAMP biosensor assay, NPY Y2 receptor antagonism; assay type: cell-based; conditions: for fold increase in potency compared to SF-11: more potent than SF-11
T1 sequence (P49146 1-381): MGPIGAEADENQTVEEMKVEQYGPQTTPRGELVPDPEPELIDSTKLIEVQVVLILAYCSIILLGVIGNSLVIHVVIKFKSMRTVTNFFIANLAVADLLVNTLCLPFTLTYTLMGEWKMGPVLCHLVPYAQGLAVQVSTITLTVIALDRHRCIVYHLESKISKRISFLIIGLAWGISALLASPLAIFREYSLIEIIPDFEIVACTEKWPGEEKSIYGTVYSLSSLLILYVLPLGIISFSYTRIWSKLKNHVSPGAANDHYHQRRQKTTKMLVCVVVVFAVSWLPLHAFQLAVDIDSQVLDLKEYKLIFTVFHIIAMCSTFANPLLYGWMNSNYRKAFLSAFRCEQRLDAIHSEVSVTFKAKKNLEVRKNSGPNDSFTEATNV

[2] = test system: NPY Y1 and 38 off-target receptors, including GPCRs, transporters and ion-channels; conditions: cited from earlier work

Structure (SMILES): N=C(N)NCCC[C@H](NC(=O)CC1(CC(=O)N2CCN(C3c4ccccc4NC(=O)c4ccccc43)CC2)CCCC1)C(=O)NCCn1c(=O)n(-c2ccccc2)n(-c2ccccc2)c1=O (stereo partly shown) [BIIE0246]
- brain penetration ([1]; BIIE0246): poor brain penetration
- IC50 (NPY Y2): 3.3 nM
- ethanol consumption (rats): decreased ethanol consumption
- antidepressant-like effects (mice): induced antidepressant-like effects

- NPY Y2 antagonist activity (in words) (NPY Y2 receptor): complete loss of activity
Structure (SMILES): OC(c1ccccc1)(c1ccccc1)C1CCN(C(=S)Nc2ccccc2)CC1 [Compound 1]

- fold increase in potency compared to SF-11 (NPY Y2 receptor): ~3 fold
Structure (SMILES): CCN(CC)c1ccc(NC(=S)N2CCC(C(O)(c3ccccc3)c3ccccc3)CC2)cc1 [Compound 8]

Structure (SMILES): CCN(CC)C(=O)c1ccc(NC(=S)N2CCC(C(O)(c3ccccc3)c3ccccc3)CC2)cc1 [Compound 15]
- fold more potent than N,N-dimethylamide analogue 14 (NPY Y2 receptor; compared with 14): 4 fold

- fold increase in potency compared to SF-11 (NPY Y2 receptor): 10 fold
Structure (SMILES): CN(C)S(=O)(=O)c1ccc(NC(=S)N2CCC(C(O)(c3ccccc3)c3ccccc3)CC2)cc1 [Compound 16]

- NPY Y2 antagonist activity (in words) (NPY Y2 receptor): partial antagonism
Structure (SMILES): CCOC(=O)c1cccc(NC(=S)N2CCC(C(O)(c3ccccc3)c3ccccc3)CC2)c1 [Compound 22]

- NPY Y2 antagonist activity (in words) (NPY Y2 receptor): complete loss of activity
Structure (SMILES): CCOc1ccc(NC(=S)N2CCC(C(O)(c3ccccc3)c3ccccc3)CC2)c(C)c1 [Compound 27]

- NPY Y2 antagonist activity (in words) (NPY Y2 receptor): complete loss of activity
Structure (SMILES): CCOc1ccc(NC(=S)N2CCC(C(O)(c3ccccc3)c3ccccc3)CC2)c(C(F)(F)F)c1 [Compound 28]

- NPY Y2 antagonist activity (in words) (NPY Y2 receptor): complete loss of activity
Structure (SMILES): OC(c1ccccc1)(c1ccccc1)C1CCN(C(=S)Nc2ccc(C(F)(F)F)cc2Cl)CC1 [Compound 29]

- fold less potent than SF-11 (NPY Y2 receptor; less potent than SF-11): ~7 fold
Structure (SMILES): CCOc1ccc(NC(=S)N2CCC(C(O)(c3ccccc3)c3ccccc3)CC2)c(F)c1 [Compound 30]

- NPY Y2 antagonist activity (in words) (NPY Y2 receptor): no activity
Structure (SMILES): COC(c1ccccc1)(c1ccccc1)C1CCN(C(=S)Nc2ccc(S(=O)(=O)N(C)C)cc2)CC1 [Compound 35]

- NPY Y2 antagonist activity (in words) (NPY Y2 receptor): retained the activity
Structure (SMILES): CCOc1ccc(NC(=S)N2CCN(C(c3ccccc3)c3ccccc3)CC2)cc1 [Compound 36]

- NPY Y2 antagonist activity (in words) (NPY Y2 receptor): complete loss of activity
Structure (SMILES): CCOc1ccc(NC(=S)N2CCC(C(O)(c3ccccc3)C3CCCCC3)CC2)cc1 (stereo not shown) [Compound 38]

- NPY Y2 antagonist activity (in words) (NPY Y2 receptor): inactive
Structure (SMILES): CN(C)S(=O)(=O)c1ccc(NC(=S)N2CCN(C3c4ccccc4CCc4ccccc43)CC2)cc1 [Compound 45]

- fold less potent than N,N-diethyl sulfonamide analogue 54 (NPY Y2 receptor; compared with 54): 18 fold
Structure (SMILES): CCN(CC)C(=O)c1ccc(OC(=O)N2CCC(C(O)(c3ccccc3)c3ccccc3)CC2)cc1 [Compound 60]

- NPY Y2 antagonist activity (in words) (NPY Y2 receptor): completely lost the activity
Structure (SMILES): CC(=O)Nc1ccc(OC(=O)N2CCC(C(O)(c3ccccc3)c3ccccc3)CC2)cc1 [Compound 61]

- NPY Y2 antagonist activity (in words) (NPY Y2 receptor): completely lost the activity
Structure (SMILES): CCC(=O)Nc1ccc(OC(=O)N2CCC(C(O)(c3ccccc3)c3ccccc3)CC2)cc1 [Compound 62]

- NPY Y2 antagonist activity (in words) (NPY Y2 receptor): retained the antagonist activity
Structure (SMILES): CS(=O)(=O)Nc1ccc(OC(=O)N2CCC(C(O)(c3ccccc3)c3ccccc3)CC2)cc1 [Compound 63]

- NPY Y2 antagonist activity (in words) (NPY Y2 receptor): no activity
Structure (SMILES): CCN(CC)C(=O)c1cccc(OC(=O)N2CCC(C(O)(c3ccccc3)c3ccccc3)CC2)c1 [Compound 64]

- NPY Y2 antagonist activity (in words) (NPY Y2 receptor): no activity
Structure (SMILES): CCN(CC)S(=O)(=O)c1cccc(OC(=O)N2CCC(C(O)(c3ccccc3)c3ccccc3)CC2)c1 [Compound 65]

Structure (SMILES): CCOc1ccc(NC(=S)N2CCC(C(O)(c3ccccc3)c3ccccc3)CC2)cc1 [SF-11, N-(4-ethoxyphenyl)-4-[hydroxy(diphenyl)methyl]piperidine-1-carbothioamide]
- brain penetration ([1]; HTS hit chemotypes): brain-penetrant
- selectivity against NPY Y1 and 38 off-target receptors [2]: selective

Structure (SMILES): Cc1ccc(C)c(NS(=O)(=O)c2cc(C(=O)Nc3ccccc3-c3ccccc3)ccc2C)c1 [SF-21]
- brain penetration ([1]; HTS hit chemotypes): brain-penetrant
- selectivity against NPY Y1 and 38 off-target receptors [2]: selective

Structure (SMILES): COc1cccc(-c2nc(-c3ccc(NC(=O)Cc4ccccc4OC)cc3)no2)c1 [SF-31]
- brain penetration ([1]; HTS hit chemotypes): brain-penetrant
- selectivity against NPY Y1 and 38 off-target receptors [2]: selective

Structure (SMILES): Cc1ccc(S(=O)(=O)C(c2ccccc2)c2c(C)noc2C)cc1 (stereo not shown) [SF-41]
- brain penetration ([1]; HTS hit chemotypes): brain-penetrant
- selectivity against NPY Y1 and 38 off-target receptors [2]: selective
